For 20 compounds, IC50 results are on record in patent US10420772B2, “Animal and human anti-trypanosomonal and anti-leishmania agents” (Celgene Corporation, priority 2016, dated 2019).

Like-named read-outs stand apart in the source and are kept apart here.

What all share (assay type): cell-based
Assay [1] has as its system IL3000 T. congolense (drug sensitive) strain. The assay can be described thus: In vitro Alamar Blue 72 hrs drug sensitivity assay for T. congolense. The conditions noted are these: Trypanosoma congolense, IL3000 T. congolense bloodstream form, read-out: T. congo Act. As to the method: In Vitro Alamar Blue 72 Hrs Drug Sensitivity Assay for T. Congolense. Compounds were tested in vitro for chemotherapeutic efficacy against the IL3000 T. congolense (drug sensitive) strain using an Alamar Blue assay. Test compounds were prepared as 10 mg/mL DMSO stocks for each assay run. Compounds were assayed in at least three separate, independent test runs and an 11-point dilution curve was used to determine the IC50 values. Bloodstream form trypanosomes were supported in HMI media containing 20% bovine serum and were incubated with test compounds for 69 hrs at 34° C. in a humidified atmosphere containing 5% CO2. Thereafter, 10 μL of Resazurin dye (12.5 mg in 100 mL of phosphate buffered saline, Sigma-Aldrich, Buchs, Switzerland) were added for an additional 3 hrs. Plates were then read using a fluorescent plate reader (Spectramax, Gemini XS, Bucher Biotec, Basel, Switzerland) using an excitation wavelength of 536 nm and an emission wavelength of 588 nm. Data points were averaged to generate sigmoidal dose-response curves and IC50 values were determined using Softmax Pro 5.2 software.
Background: Resazurin is reduced to fluorescent resorufin, in cell work by metabolically active cells.

Assay [2] has as its system STIB 719/ILRAD 560 T. vivax (drug sensitive) strain. Briefly: Ex vivo Alamar Blue 48 hrs drug sensitivity assay for T. vivax. Particulars: Trypanosoma vivax, read-out: T. vivax Act. As for the experimental part: Ex vivo Alamar Blue48 hrs drug sensitivity assay for T. vivax. Compounds were tested ex vivo for chemotherapeutic efficacy against the STIB 719/ILRAD 560 T. vivax (drug sensitive) strain, using an Alamar Blue assay. Test compounds were prepared as 10 mg/mL DMSO stocks for each assay run. Compounds were assayed in at least three separate, independent test runs and an 11-point dilution curve was used to determine the IC50 values. Bloodstream form trypanosomes were propagated and harvested from a highly parasitaemic mouse (via cardiac puncture) and were incubated with test compounds for 45 hrs at 37° C. in a humidified atmosphere containing 5% CO2, supported in HMI media containing 20% bovine serum. Thereafter, 10 μL of Resazurin dye (12.5 mg in 100 mL of phosphate buffered saline, Sigma-Aldrich, Buchs, Switzerland) were added for an additional 3 hrs. Plates were then read using a fluorescent plate reader (Spectramax, Gemini XS, Bucher Biotec, Basel, Switzerland) using an excitation wavelength of 536 nm and an emission wavelength of 588 nm. Data points were averaged to generate sigmoidal dose-response curves and IC50 values were determined using Softmax Pro 5.2 software.

Assay [3] has as its system STIB 806 K T. evansi (drug sensitive) strain. Briefly: In vitro Alamar Blue 72 hrs drug sensitivity assay for T. evansi. The conditions noted are these: read-out: T. evansi Act. As for the experimental part:
In vitro Alamar Blue 72 hrs drug sensitivity assay for T. evansi. Compounds were tested in vitro for chemotherapeutic efficacy against the STIB 806 K T. evansi (drug sensitive) strain, using an Alamar Blue assay. Test compounds were prepared as 10 mg/mL DMSO stocks for each assay run. Compounds were assayed in at least three separate, independent test runs and an 11-point dilution curve was used to determine the IC50 values. Bloodstream form trypanosomes were incubated with test compounds for 69 hrs at 37° C. in a humidified atmosphere containing 5% CO2, supported in HMI media containing 15% horse serum. Thereafter, 10 μL of Resazurin dye (12.5 mg in 100 mL of phosphate buffered saline, Sigma-Aldrich, Buchs, Switzerland) were added for an additional 3 hrs. Plates were then read using a fluorescent plate reader (Spectramax, Gemini XS, Bucher Biotec, Basel, Switzerland) using an excitation wavelength of 536 nm and an emission wavelength of 588 nm. Data points were averaged to generate sigmoidal dose-response curves and IC50 values were determined using Softmax Pro 5.2 software.

Setting [4] is: STIB719, STIB 719/ILRAD 560 T. vivax bloodstream form, ex vivo, Alamar Blue, 48 hrs.
[5] abbreviates: STIB 806 K T. evansi bloodstream form, Alamar Blue, 72 hrs.

With `CC1(Nc2ncc3nc(Nc4ccnc(C(F)(F)F)c4)n([C@H]4CC[C@@H](CN)CC4)c3n2)CCOCC1` [A-34, 9-((1s,4s)-4-(aminomethyl)cyclohexyl)-N2-(4-methyltetrahydro-2H-pyran-4-yl)-N8-(2-(trifluoromethyl)pyridin-4-yl)-9H-purine-2,8-diamine], the IC50 in assay [1], in assay [2] (setting [4]) and in assay [3] (setting [5]) was below 150 nM each time.
Consider `CC1(Nc2ncc3nc(Nc4ccc(OC(F)(F)F)cc4)n([C@H]4CC[C@@H](CN)CC4)c3n2)CCOCC1` [A-38, 9-((1s,4s)-4-(aminomethyl)cyclohexyl)-N2-(4-methyltetrahydro-2H-pyran-4-yl)-N8-(4-(trifluoromethoxy)phenyl)-9H-purine-2,8-diamine], for which the IC50 was below 150 nM in assay [1], below 150 nM in assay [2] (setting [4]) and 150 to 350 nM in assay [3] (setting [5]).
As to `CC1(Nc2ncc3nc(Nc4cccc(C(F)(F)F)c4F)n([C@H]4CC[C@@H](CN)CC4)c3n2)CCOCC1` [A-46, 9-((1s,4s)-4-(aminomethyl)cyclohexyl)-N8-(2-fluoro-3-(trifluoromethyl)phenyl)-N2-(4-methyltetrahydro-2H-pyran-4-yl)-9H-purine-2,8-diamine], the IC50 in assay [1], in assay [2] (setting [4]) and in assay [3] (setting [5]) was below 150 nM each time.
For `CN(C)C[C@H]1CC[C@@H](n2c(Nc3cccc(Cl)c3)nc3cnc(NC4(C)CCOCC4)nc32)CC1` [A-5, N8-(3-chlorophenyl)-9-((1s,4s)-4-((dimethylamino)methyl)cyclohexyl)-N2-(4-methyltetrahydro-2H-pyran-4-yl)-9H-purine-2,8-diamine], the IC50 in assay [1], in assay [2] (setting [4]) and in assay [3] (setting [5]) was below 150 nM each time.
Consider `CC1(Nc2ncc3nc(Nc4cccc(OC(F)(F)F)c4)n([C@H]4CC[C@@H](CN)CC4)c3n2)CCOCC1` [A-37, 9-((1s,4s)-4-(aminomethyl)cyclohexyl)-N2-(4-methyltetrahydro-2H-pyran-4-yl)-N8-(3-(trifluoromethoxy)phenyl)-9H-purine-2,8-diamine], for which the IC50 in assay [1], in assay [2] (setting [4]) and in assay [3] (setting [5]) was below 150 nM throughout.
`CC1(Nc2ncc3nc(Nc4cccc(Cl)c4F)n([C@H]4CC[C@@H](CN)CC4)c3n2)CCOCC1` [A-49, 9-((1s,4s)-4-(aminomethyl)cyclohexyl)-N8-(3-chloro-2-fluorophenyl)-N2-(4-methyltetrahydro-2H-pyran-4-yl)-9H-purine-2,8-diamine]: the IC50 in assay [1], in assay [2] (setting [4]) and in assay [3] (setting [5]) was below 150 nM throughout.
For the compound `CN(C)C[C@H]1CC[C@@H](n2c(Nc3cccc(C(F)(F)F)c3)nc3cnc(NC4(C)CCOCC4)nc32)CC1` [A-56, 9-((1s,4s)-4-((dimethylamino)methyl)cyclohexyl)-N2-(4-methyltetrahydro-2H-pyran-4-yl)-N8-(3-(trifluoromethyl)phenyl)-9H-purine-2,8-diamine], the IC50 in assay [1] and in assay [3] (setting [5]) was below 150 nM in each case.
In the case of `CC1(Nc2ncc3nc(Nc4cc(Cl)cc(Cl)c4)n([C@H]4CC[C@@H](CN)CC4)c3n2)CCOCC1` [A-43, 9-((1s,4s)-4-(aminomethyl)cyclohexyl)-N8-(3,5-dichlorophenyl)-N2-(4-methyltetrahydro-2H-pyran-4-yl)-9H-purine-2,8-diamine], the IC50 in assay [1], in assay [2] (setting [4]) and in assay [3] (setting [5]) was below 150 nM in each case.
As to `CC(=O)NC[C@H]1CC[C@@H](n2c(Nc3cccc(Cl)c3)nc3cnc(NC4(C)CCOCC4)nc32)CC1` [A-11, N-(((1s,4s)-4-(8-(3-chlorophenylamino)-2-(4-methyltetrahydro-2H-pyran-4-ylamino)-9H-purin-9-yl)cyclohexyl)methyl)acetamide], the IC50 in assay [1] is 350 to 500 nM; in assay [2] (setting [4]), below 150 nM; in assay [3] (setting [5]), 350 to 500 nM.
On to `CC1(Nc2ncc3nc(Nc4cccc(Cl)c4)n(C4CCC(CN)CC4)c3n2)CCCC1` (stereo not shown) [A-4, 9-((1s,4s)-4-(aminomethyl)cyclohexyl)-N8-(3-chlorophenyl)-N2-(1-methylcyclopentyl)-9H-purine-2,8-diamine], for which the IC50 in assay [1] was below 150 nM; in assay [2] (STIB719, 48 h), below 150 nM; in assay [3] (72 h), below 150 nM.
As to `CC1(Nc2ncc3nc(Nc4cc(Cl)ccc4F)n([C@H]4CC[C@@H](CN)CC4)c3n2)CCOCC1` [A-50, 9-((1s,4s)-4-(aminomethyl)cyclohexyl)-N8-(5-chloro-2-fluorophenyl)-N2-(4-methyltetrahydro-2H-pyran-4-yl)-9H-purine-2,8-diamine], the IC50 in assay [1] and in assay [3] (setting [5]) was below 150 nM throughout.
Regarding `NCC1CCC(n2c(Nc3cc(Cl)ccc3F)nc3cnc(NC4CCOCC4)nc32)CC1` (stereo not shown) [B-17, 9-((1s,4s)-4-(aminomethyl)cyclohexyl)-N8-(5-chloro-2-fluorophenyl)-N2-(tetrahydro-2H-pyran-4-yl)-9H-purine-2,8-diamine], the IC50 in assay [1] and in assay [2] (setting [4]) was below 150 nM throughout.
On to `CC1(Nc2ncc3nc(Nc4ccc(C(F)(F)F)cc4)n(C4CCC(CN)CC4)c3n2)CCCC1` (stereo not shown) [A-16, 9-((1s,4s)-4-(aminomethyl)cyclohexyl)-N2-(1-methylcyclopentyl)-N8-(4-(trifluoromethyl)phenyl)-9H-purine-2,8-diamine], for which the IC50 in assay [1] and in assay [2] (setting [4]) was 350 to 500 nM each time.
As to `CCC(C)(C)Nc1ncc2nc(Nc3cccc(Cl)c3)n([C@H]3CC[C@@H](CN)CC3)c2n1` [A-3, 9-((1s,4s)-4-(aminomethyl)cyclohexyl)-N8-(3-chlorophenyl)-N2-tert-pentyl-9H-purine-2,8-diamine], the IC50 in assay [1] and in assay [2] (setting [4]) was below 150 nM in each case.
As for `CC(C)(C)Nc1ncc2nc(Nc3cccc(C(F)(F)F)c3)n([C@H]3CC[C@H](N)CC3)c2n1` [A-30, 9-((1r,4r)-4-aminocyclohexyl)-N2-tert-butyl-N8-(3-(trifluoromethyl)phenyl)-9H-purine-2,8-diamine], the IC50 in assay [1] and in assay [2] (setting [4]) was below 150 nM throughout.
For the compound `NCC1CCC(n2c(Nc3cccc(Cl)c3)nc3cnc(NCC(F)(F)F)nc32)CC1` (stereo not shown) [B-10, 9-((1s,4s)-4-(aminomethyl)cyclohexyl)-N8-(3-chlorophenyl)-N2-(2,2,2-trifluoroethyl)-9H-purine-2,8-diamine], the IC50 is 350 to 500 nM in assay [1] and below 150 nM in assay [2] (setting [4]).
In the same order, the values of `CC1(Nc2ncc3nc(Nc4cncc(Cl)c4)n([C@H]4CC[C@@H](CN)CC4)c3n2)CCOCC1` [A-33, 9-((1s,4s)-4-(aminomethyl)cyclohexyl)-N8-(5-chloropyridin-3-yl)-N2-(4-methyltetrahydro-2H-pyran-4-yl)-9H-purine-2,8-diamine] are 150 to 350 nM and below 150 nM.
Turning to `NCC1CCC(n2c(Nc3cc(Cl)cc(C(F)(F)F)c3)nc3cnc(NC4CCOCC4)nc32)CC1` (stereo not shown) [B-12, 9-((1s,4s)-4-(aminomethyl)cyclohexyl)-N8-(3-chloro-5-(trifluoromethyl)phenyl)-N2-(tetrahydro-2H-pyran-4-yl)-9H-purine-2,8-diamine], the IC50 in assay [1] and in assay [2] (setting [4]) was 350 to 500 nM throughout.
`CNC[C@H]1CC[C@@H](n2c(Nc3cccc(C(F)(F)F)c3)nc3cnc(NC4(C)CCOCC4)nc32)CC1` [A-58, 9-((1s,4s)-4-((methylamino)methyl)cyclohexyl)-N2-(4-methyltetrahydro-2H-pyran-4-yl)-N8-(3-(trifluoromethyl)phenyl)-9H-purine-2,8-diamine]: the IC50 in assay [1] and in assay [2] (setting [4]) was below 150 nM throughout.
With `CC(C)(C)Nc1ncc2nc(Nc3ccccn3)n(C3CCC(CN)CC3)c2n1` (stereo not shown) [A-6, 9-((1s,4s)-4-(aminomethyl)cyclohexyl)-N2-tert-butyl-N8-(pyridin-2-yl)-9H-purine-2,8-diamine], the IC50 is 350 to 500 nM in assay [1] and below 150 nM in assay [2] (setting [4]).
